Source: patent US20210338686A1, “COMBINATION CANCER THERAPY WITH PENTAAZA MACROCYCLIC RING COMPLEX AND PLATINUM-BASED ANTICANCER AGENT” (Galera Labs, LLC, priority 2018, published 2021)

Tests used:
[1] = test system: inflammation; conditions: rat model; Salvemini et al. 1999; cited from earlier work
[2] = test system: collagen-induced arthritis; conditions: rat collagen-induced arthritis; Salvemini et al. 2001; cited from earlier work
[3] = test system: experimental model of colitis; conditions: rats; Cuzzocrea et al. 2001; cited from earlier work
[4] = test system: acute, radiation-induced oral mucositis; conditions: hamster oral mucositis; Murphy et al. 2008; cited from earlier work
[5] = test system: lethal total body irradiation; conditions: adult mice, Thompson et al. 2010; cited from earlier work
[6] = test system: H460 and H1299 (wild type) cells; assay: Mitochondrial superoxide (MitoSOX probe, flow cytometer); format: cell-based, human; conditions: FIGS. 8A-8D
[7] = test system: H460 human non-small cell lung carcinoma (NSCLC) cells; assay: Survival of H460 cells in culture with GC4419 and cisplatin; format: cell-based; conditions: 24 μM GC4419 added to cisplatin (indicated concentrations), 120 hrs, vs cisplatin alone; FIG. 1
Protocol: After 120 hrs the surviving fraction of cells was determined.

[8] = test system: PARP in H1299 (wild type) NSCLC cells; assay: PARP activation in H1299 (wild type) cells (Western blot); format: cell-based, human; conditions: 24 hr
[9] = test system: athymic female Nu/Nu (nude) mice implanted with SQ20B human head and neck squamous cell carcinoma cells; assay: Cisplatin-induced hematotoxicity in nude mice bearing SQ20B tumors; format: in vivo; conditions: 10 mg/kg GC4419 every day added to cisplatin + IR
Protocol: 7 week old athymic female Nu/Nu (nude) mice were implanted in a hind leg with SQ20B human head and neck squamous cell carcinoma cells. […] Mice were assessed for blood counts by tail vein blood collection either 2 days or 2 weeks after the treatment period.

[10] = test system: VEGFr inhibitor-induced pulmonary disease; conditions: rat model; Tuder et al. 2003; cited from earlier work
[11] = test system: H460 and H1299 (wild type) cells; assay: Hydrogen peroxide (P0-1 probe); format: cell-based, human; conditions: FIGS. 9A-9D
[12] = test system: PARP (poly (ADP ribosyl) polymerase) in H460 NSCLC cells; assay: PARP activation in H460 cells (Western blot, 89 kd active / 116 kd inactive form); format: cell-based, human; conditions: 24 hr
From the text: PARP is a nuclear enzyme involved in DNA repair of single strand breaks and is activated following cell stress including chemotherapy and irradiation.

[13] = test system: cisplatin-induced acute kidney injury (AKI) model, male C57BL/6J mice; assay: Cisplatin-induced acute kidney injury (AKI) model in mice; format: in vivo
From the text: 4 month old male C57BL/6J mice (young) were purchased from Jackson Laboratories and 18 month old mice (old) were obtained as collaboration with Dr. Amy Sindler (University of Iowa) from the National institute of Aging. All mice were maintained in accordance with ACURF approval #4121235 at the University of Iowa Animal Care facility. Mice were maintained on normal diets and water ad libitum through the course of the experiment.
Animals were weighed every other day following the start of treatment with GC4419.

[14] = test system: PARP in H1299CAT cells; assay: PARP activation in H1299CAT cells with doxycycline induction of CAT overexpression; format: cell-based, human; conditions: CAT induced with doxycycline, 24 hr
From the text: When treated with doxcycline, H1299CAT cells express greater levels of human catalase (CAT) than the “parent” cells, H1299 (wild type), eliminating all or part of the H2O2 generated from superoxide by GC4419 or other Mn pentaazamacrocyclic dismutase mimetcs.

[15] = test system: H460 and H1299 (wild type) cells; assay: Total reactive oxygen species (CellROX probe, flow cytometer); format: cell-based, human; conditions: FIGS. 7A-7D
Protocol: After the treatments and incubations CellROX fluorogenic probes for total ROS were added for 30 minutes continued incubation and the CellROX signal was measured using a flow cytometer.

[16] = test system: H1299 human NSCLC cells, modified to inducibly overexpress catalase (CAT) (H1299CAT); assay: Survival of H1299CAT cells with GC4419, cisplatin and catalase overexpression; format: cell-based; conditions: 24 μM GC4419 added to cisplatin, 120 hrs, FIG. 2
From the text: CAT overexpression in this line (H1299CAT) was induced by administration of doxycycline, which turned on transcription of the inserted catalase genes.

[17] = test system: oral mucositis in head-and-neck cancer patients; conditions: head-and-neck cancer patients undergoing chemoradiation therapy; Anderson 2015; cited from earlier work
[18] = 24 μM GC4419, both cancer cell lines
[19] = 10 mg/kg GC4419 daily from 4 days prior to 10 mg/kg cisplatin, 72 hours after cisplatin, FIG. 10A
[20] = 1 μM cisplatin or cisplatin plus 6 Gy IR

## [Cl-].[Cl-].[Mn+2].c1cc2nc(c1)CN[C@@H]1CCCC[C@H]1NCCN[C@@H]1CCCC[C@H]1NC2 [GC4403]
[1]
  inflammation: inhibit inflammation
[2]
  joint disease: prevent joint disease
[3]
  injury to the colon: very significantly reduce the injury to the colon
[4]
  radiation damage: attenuate the radiation damage
[5]
  radiation damage: attenuate the radiation damage

## [Cl][Mn][Cl].c1cc2nc(c1)CN[C@H]1CCCC[C@@H]1NCCN[C@H]1CCCC[C@@H]1NC2 [GC4419]
[6]; [18]
  basal levels of mitochondrial superoxide (MitoSOX signal): significantly reduced the basal levels of mitochondrial superoxide
[6]; 24 μM GC4419 added to cisplatin or cisplatin plus IR
  mitochondrial superoxide (MitoSOX signal): significantly reduced the increase in mitochondrial superoxide
[7]
  surviving fraction of cells: decreased the surviving fraction of H460 cells
[8]; 24 μM GC4419 added to 10 μM cisplatin, vs cisplatin, FIG. 4
  PARP activity (ratio of 89 kd active form to 116 kd inactive form): further and significantly p<0.01) increased PARP activity
[8]; 24 μM GC4419 added to 6 Gy IR + 1 μM cisplatin, FIG. 6A
  PARP activity (ratio of 89 kd active form to 116 kd inactive form): significantly increased (p<0.0.05)
[8]; 24 μM GC4419 added to 6 Gy IR, vs radiation alone, FIG. 6A
  PARP activity (ratio of 89 kd active form to 116 kd inactive form): significantly increased PARP activity over that seen with radiation alone
[9]; 2 days and 2 weeks after the end of treatment, FIG. 11B
  leukocyte (WBC) and lymphocyte count: stimulated leukocyte (WBC) and proportionally lymphocyte subset production
[9]; FIG. 11C
  neutrophil percentage: maintained neutrophil percentage at apparently normal levels
[9]; FIG. 11D
  eosinophil percentage: maintained eosinophil percentage at apparently normal levels
[9]; two days after the end of treatments, FIG. 11A
  platelets: significantly restored platelet levels
[10]
  VEGFr inhibitor-induced pulmonary disease: attenuate VEGFr inhibitor-induced pulmonary disease
[11]; [18]
  basal levels of H2O2: significantly increases both the basal levels of H2O2
[11]; 24 μM GC4419 added to cisplatin or cisplatin plus IR, both cancer cell lines
  H2O2: significantly further increases the increase in H2O2
[12]; 24 μM GC4419 added to 1 μM cisplatin, vs cisplatin, FIG. 3
  PARP activity (ratio of 89 kd active form to 116 kd inactive form): further and significantly (p<0.01) increased PARP activity
[12]; 24 μM GC4419 added to 6 Gy IR + 1 μM cisplatin, FIG. 5
  PARP activity (ratio of 89 kd active form to 116 kd inactive form): significantly increased (p<0.01)
[12]; 24 μM GC4419 added to 6 Gy IR, vs radiation alone, FIG. 5
  PARP activity (ratio of 89 kd active form to 116 kd inactive form): significantly increased PARP activity over that seen with radiation alone
[13]; 10 mg/kg GC4419 daily + 10 mg/kg cisplatin, old mice, FIG. 10D
  survival: prevented cisplatin mortality in the old mice
[13]; 10 mg/kg GC4419 daily + 10 mg/kg cisplatin, young and old mice, FIG. 10C
  body weight: reduced the amount of weight loss in both sets of mice
[13]; 10 mg/kg GC4419 daily + 10 mg/kg cisplatin, FIG. 10B
  kidney injury biomarkers KIM1 and NGAL: prevented that injury
[13]; [19]
  creatinine level: completely prevented these increases
  whole blood urea nitrogen (BUN) level: completely prevented these increases
[14]; 24 μM GC4419 + 1 μM cisplatin, p<0.01, FIG. 6B
  PARP activation response to cisplatin: reduced the PARP activation response
[14]; 24 μM GC4419 + 6 Gy IR + 1 μM cisplatin, p<0.001, FIG. 6C
  PARP activation response to IR+cisplatin: reduced the PARP activation response
[14]; 24 μM GC4419 + 6 Gy IR, p<0.05, FIG. 6C
  PARP activation response to IR: reduced the PARP activation response
[15]; 24 μM GC4419 added to cisplatin therapy
  total ROS (CellROX signal): synergistic effect on total ROS
[15]; 24 μM GC4419 used alone, either cancer cell line
  total ROS (CellROX signal): little effect on total ROS
[16]; with CAT overexpression (doxycycline induced)
  surviving fraction of cells: abrogated the GC4419 contribution to cisplatin response
[16]; without CAT overexpression (wt), vs cisplatin alone
  surviving fraction of cells: decreased the surviving fraction
[17]
  oral mucositis: reduce oral mucositis

## N.N.[Cl][Pt][Cl] [cisplatin, reference compound]
[6]; [20]
  mitochondrial superoxide (MitoSOX signal): increase in mitochondrial superoxide
[11]; [20]
  H2O2: increase in H2O2
[15]; [20]
  total ROS (CellROX signal): increased total ROS
